Reference: patent US8735387B2, “Oxazolopyrimidines as Edg-1 receptor agonists” (Sanofi, priority 2008, dated 2014)

target: T1, human Edg-1 receptor (Homo sapiens, UniProt P21453); assay: GTP-γ-S assay using human Edg-1 receptors (scintillation proximity assay, membrane preparation from CHO Flp-In cell line); type: biochemical; settings: example compound at 10 μM; relative to 10 μM S1P; GTP-γ-S SPA, human Edg-1 membranes
T1 construct: expressed in transfected cells; membrane preparation
How it was run: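 Membranes came from Flp-In CHO cells constitutively expressing human Edg-1 carrying an N-terminal FLAG tag. Compound-induced receptor activation was read as GTP-γ-S binding in a scintillation proximity format.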

T1 sequence (P21453 whole entry): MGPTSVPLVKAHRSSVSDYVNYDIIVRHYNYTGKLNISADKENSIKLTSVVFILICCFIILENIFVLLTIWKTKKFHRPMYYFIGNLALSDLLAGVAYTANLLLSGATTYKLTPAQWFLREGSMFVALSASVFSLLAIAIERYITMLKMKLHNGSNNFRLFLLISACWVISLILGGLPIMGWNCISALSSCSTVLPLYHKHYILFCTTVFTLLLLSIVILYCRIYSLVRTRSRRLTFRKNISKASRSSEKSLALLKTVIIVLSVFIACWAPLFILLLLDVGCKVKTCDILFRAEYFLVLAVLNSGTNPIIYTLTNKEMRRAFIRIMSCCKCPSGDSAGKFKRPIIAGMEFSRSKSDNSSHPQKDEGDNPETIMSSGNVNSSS

| Compound | % Activation (Edg-1 receptor activation in percent of the activation by 10 μM S1P) [%] |
| --- | --- |
| CCOc1nc(Cc2ccc(Cl)cc2)nc2oc(-c3cc(C)c(OCC(=O)N4CCC(C(=O)O)C4)c(C)c3)nc12 (stereo not shown) [Example 239] | 86 |
| CCCOc1nc(Cc2ccc(Cl)cc2)nc2oc(-c3cc(C)c(OCC(=O)NCCC(=O)O)c(C)c3)nc12 [Example 241] | 128 |
| CCCOc1nc(Cc2ccc(Cl)cc2)nc2oc(-c3cc(C)c(OCC(=O)N4CC(C(=O)O)C4)c(C)c3)nc12 [Example 242] | 106 |
| CCCOc1nc(Cc2ccc(Cl)cc2)nc2oc(-c3cc(C)c(OCC(=O)N4CCC(C(=O)O)C4)c(C)c3)nc12 (stereo not shown) [Example 243] | 106 |
| CCCOc1nc(Cc2ccc(Cl)cc2)nc2oc(-c3cc(C)c(OCC(=O)NCCO)c(C)c3)nc12 [Example 244] | 97 |
| CCCOc1nc(Cc2ccc(Cl)cc2)nc2oc(-c3cc(C)c(OCC(=O)N4CCC[C@H]4C(=O)O)c(C)c3)nc12 [Example 245] | 144 |
| CCOc1nc(Cc2ccc(Cl)cc2)nc2oc(-c3cc(C)c(OCC(=O)N4CC(C(=O)OC)C4)c(C)c3)nc12 [Example 246] | 111 |
| CCCOc1nc(Cc2ccc(Cl)cc2)nc2oc(-c3cc(C)c(OCC(=O)OCC(=O)O)c(C)c3)nc12 [Example 247] | 110 |
| CCCOc1nc(Cc2ccc(Cl)cc2)nc2oc(-c3cc(C)c(OCC(=O)OC)c(C)c3)nc12 [Example 248] | 89 |
| CCOc1nc(Cc2ccc(Cl)cc2)nc2oc(-c3cc(C)c(OCC(=O)NCCN(C)C)c(C)c3)nc12 [Example 249] | 104 |
| CCOc1nc(Cc2ccc(Cl)cc2)nc2oc(-c3cc(C)c(OCC(=O)NCC(=O)OC(C)(C)C)c(C)c3)nc12 [Example 250] | 72 |
| CCCOc1nc(Cc2ccc(Cl)cc2)nc2oc(-c3cc(C)c(OCCCC(=O)O)c(C)c3)nc12 [Example 251] | 112 |
| CCCOc1nc(Cc2ccc(Cl)cc2)nc2oc(-c3cc(C)c(OCC(=O)NCc4ccco4)c(C)c3)nc12 [Example 252] | 102 |
| CCOc1nc(Cc2ccc(Cl)cc2)nc2oc(-c3cc(C)c(OCC(=O)O)c(C)c3)nc12 [Example 253] | 79 |
| CCCOc1nc(Cc2ccc(Cl)cc2)nc2oc(-c3cc(C)c(OCC(=O)NCC4CC4)c(C)c3)nc12 [Example 254] | 86 |
| CCOc1nc(Cc2ccc(Cl)cc2)nc2oc(-c3cc(C)c(OCC(=O)NCCC(=O)OC(C)(C)C)c(C)c3)nc12 [Example 255] | 74 |
| CCCOc1nc(Cc2ccc(Cl)cc2)nc2oc(-c3cc(C)c(OCC(=O)NCC(=O)OC(C)(C)C)c(C)c3)nc12 [Example 256] | 69 |
| CCOc1nc(Cc2ccc(Cl)cc2)nc2oc(-c3cc(C)c(OCC(O)CNCc4ccccc4)c(C)c3)nc12 (stereo not shown) [Example 257] | 122 |
| CCOc1nc(Cc2ccc(Cl)cc2)nc2oc(-c3cc(C)c(OCC(O)CNC(=O)CO)c(C)c3)nc12 (stereo not shown) [Example 258] | 97 |
| CCOc1nc(Cc2ccc(Cl)cc2)nc2oc(-c3cc(C)c(OCC(O)CN(C(C)C)C(C)C)c(C)c3)nc12 (stereo not shown) [Example 259] | 66 |
| CCOc1nc(Cc2ccc(Cl)cc2)nc2oc(-c3cc(C)c(OCC(O)CNC(=O)C4(O)CC4)c(C)c3)nc12 (stereo not shown) [Example 260] | 95 |
| CCOc1nc(Cc2ccc(Cl)cc2)nc2oc(-c3cc(C)c(OCC(O)CNC4CCC(C(F)(F)F)CC4)c(C)c3)nc12 (stereo not shown) [Example 261] | 86 |
| CCOc1nc(Cc2ccc(Cl)cc2)nc2oc(-c3cc(C)c(OCC(O)CNC4CCN(CC(C)C)CC4)c(C)c3)nc12 (stereo not shown) [Example 262] | 43 |
| CCOc1nc(Cc2ccc(Cl)cc2)nc2oc(-c3cc(C)c(OCC(O)CN)c(C)c3)nc12 (stereo not shown) [Example 263] | 138 |

| Compound | % Activation (Edg-1 receptor activation in percent of the activation by 10 μM S1P) [%] |
| --- | --- |
| CCOc1nc(Cc2ccc(Cl)cc2)nc2oc(-c3cc(C)c(OCC(O)CN(C)C)c(C)c3)nc12 (stereo not shown) [Example 264] | 55 |
| CCOc1nc(Cc2ccc(Cl)cc2)nc2oc(-c3cc(C)c(OCC(O)CNC4CCC(C)CC4)c(C)c3)nc12 (stereo not shown) [Example 265] | 132 |
| CCOc1nc(Cc2ccc(Cl)cc2)nc2oc(-c3cccc(OCC(=O)NCCN4CCOCC4)c3)nc12 [Example 266] | 52 |
| CCOc1nc(Cc2ccc(Cl)cc2)nc2oc(-c3cccc(OCC(=O)NCC(=O)O)c3)nc12 [Example 267] | 72 |
| CCOc1nc(Cc2ccc(Cl)cc2)nc2oc(-c3cccc(OCC(=O)N[C@@H](C)C(=O)O)c3)nc12 [Example 268] | 100 |
| CCOc1nc(Cc2ccc(Cl)cc2)nc2oc(-c3cccc(OCC(=O)N4CCC[C@@H]4C(=O)O)c3)nc12 [Example 269] | 69 |
| CCOc1nc(Cc2ccc(Cl)cc2)nc2oc(-c3cccc(OCC(=O)N4CCC[C@H]4C(=O)O)c3)nc12 [Example 270] | 104 |
| CCOc1nc(Cc2ccc(Cl)cc2)nc2oc(-c3cccc(OCC(=O)NC(C)(C)C(=O)O)c3)nc12 [Example 271] | 53 |
| CCOc1nc(Cc2ccc(Cl)cc2)nc2oc(-c3cc(C)c(OCC(O)CS(=O)(=O)c4nnc(C)[nH]4)c(C)c3)nc12 (stereo not shown) [Example 272] | 105 |
| CCOc1nc(Cc2ccc(Cl)cc2)nc2oc(-c3ccc(O)c(F)c3)nc12 [Example 273] | 106 |
| CCOc1nc(Cc2ccc(Cl)cc2)nc2oc(-c3cc(C)c(OCCCS(=O)(=O)c4nnc(C5CC5)[nH]4)c(C)c3)nc12 [Example 274] | 120 |
| CCOc1nc(Cc2ccc(Cl)cc2)nc2oc(-c3cc(C)c(OCCCS(=O)(=O)c4nnc(C(C)C)[nH]4)c(C)c3)nc12 [Example 275] | 88 |
| CCOc1nc(Cc2ccc(Cl)cc2)nc2oc(-c3cc(C)c(OCCCSc4nnc(C5CC5)[nH]4)c(C)c3)nc12 [Example 276] | 54 |
| CCOc1nc(Cc2ccc(Cl)cc2)nc2oc(-c3ccc(OC)c(F)c3)nc12 [Example 277] | 49 |
| CCOc1nc(Cc2ccc(Cl)cc2)nc2oc(-c3cc(C)c(OCCCS(=O)(=O)c4nnc(C(C)(C)C)[nH]4)c(C)c3)nc12 [Example 278] | 105 |
| CCOc1nc(Cc2ccc(Cl)cc2)nc2oc(-c3ccc(OCC(=O)NCCN4CCOCC4)c(F)c3)nc12 [Example 279] | 77 |
| CCOc1nc(Cc2ccc(Cl)cc2)nc2oc(-c3cc(C)c(OCC(O)CNCCCNS(C)(=O)=O)c(C)c3)nc12 (stereo not shown) [Example 280] | 53 |
| CCOc1nc(Cc2ccc(Cl)cc2)nc2oc(-c3cc(C)c(OCC(O)CSc4nnc(C5CC5)[nH]4)c(C)c3)nc12 (stereo not shown) [Example 281] | 79 |
| CCOc1nc(Cc2ccc(Cl)cc2)nc2oc(-c3cc(C)c(OCC(O)CSc4nnc(C(C)(C)C)[nH]4)c(C)c3)nc12 (stereo not shown) [Example 282] | 108 |
| CCOc1nc(Cc2ccc(Cl)cc2)nc2oc(-c3cc(C)c(OCC(O)CS(=O)(=O)c4nnc(C(C)(C)C)[nH]4)c(C)c3)nc12 (stereo not shown) [Example 283] | 92 |
| CCOc1nc(Cc2ccc(Cl)cc2)nc2oc(-c3cccc(OC)c3)nc12 [Example 284] | 103 |
| CCOc1nc(Cc2ccc(Cl)cc2)nc2oc(-c3cc(C)c(OCCCNCCc4nc(O)n[nH]4)c(C)c3)nc12 [Example 285] | 146 |
| CCOc1nc(Cc2ccc(Cl)cc2)nc2oc(-c3cc(C)c(OCC(O)C[S+]([O-])c4ncn[nH]4)c(C)c3)nc12 (stereo not shown) [Example 286] | 114 |
| CCOc1nc(Cc2ccc(Cl)cc2)nc2oc(-c3cc(C)c(OCC(=O)NCCS(N)(=O)=O)c(C)c3)nc12 [Example 287] | 112 |

same assay, conditions: example compound at 10 μM; relative to 10 μM S1P; GTP-γ-S SPA, human Edg-1 membranes; read-out: % Activation (Edg-1 receptor activation in percent of the activation by 10 μM S1P)

| Compound | activation at 10 µM [%] |
| --- | --- |
| CCOc1nc(Cc2ccc(Cl)cc2)nc2oc(-c3cc(C)c(OCC(=O)NCC(=O)O)c(C)c3)nc12 [Example 240, (2-{4-[5-(4-chloro-benzyl)-7-ethoxy-oxazolo[5,4-d]pyrimidin-2-yl]-2,6-dimethyl-phenoxy}-acetylamino)-acetic acid] | 123 |
